Assay results taken from PubChem BioAssay AID330 (DTP/NCI, 2004).
“And” between values parts separate entries of the source, which are not always exact repeats. Identical values can stand only once. Toxic doses and inconclusive results are not listed. How the source made its calls: active means survival T/C of 150% or more; inactive means T/C below 125% in these data.

Test system: P388 leukemia ip, CD2F1 mice, survival T/C
Experiment: NCI In Vivo Anticancer Drug Screen. Data for tumor model P388 Leukemia (intraperitoneal) in CD2F1 (CDF1) mice
Settings: endpoint: median survival time, higher = longer survival
Outline: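 Mice carrying the transplanted tumor received test compound or vehicle. Survival was recorded in each group, and the value is the treated-group measurement divided by that of the vehicle-treated control group.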

[1] = dose: 50.0 mg/kg/injection, schedule: Q01DX009 (ip), vehicle: saline
[2] = dose: 100.0 mg/kg/injection, schedule: Q01DX009 (ip), vehicle: saline
[3] = dose: 200.0 mg/kg/injection, schedule: Q01DX009 (ip), vehicle: saline
[4] = dose: 50.0 mg/kg/injection, schedule: Q01DX005 (ip), vehicle: saline with Tween-80
[5] = dose: 100.0 mg/kg/injection, schedule: Q01DX005 (ip), vehicle: saline with Tween-80
[6] = dose: 200.0 mg/kg/injection, schedule: Q01DX005 (ip), vehicle: saline with Tween-80
[7] = dose: 50.0 mg/kg/injection, schedule: Q01DX009 (ip), vehicle: Klucel (hydroxypropylcellulose) (HPC)
[8] = dose: 100.0 mg/kg/injection, schedule: Q01DX009 (ip), vehicle: Klucel (hydroxypropylcellulose) (HPC)
[9] = dose: 200.0 mg/kg/injection, schedule: Q01DX009 (ip), vehicle: Klucel (hydroxypropylcellulose) (HPC)
[10] = dose: 50.0 mg/kg/injection, schedule: Q01DX009 (ip), vehicle: saline with Tween-80

Measured: T/C

O=C(O)c1cccnc1C(=O)O
inactive: [1] 105 % of control | [2] 96 % of control and 100 % of control and 111 % of control | [3] 86 % of control and 102 % of control and 97 % of control | dose: 400.0 mg/kg/injection, schedule: Q01DX009 (ip), vehicle: saline 100 % of control and 90 % of control

CNC(=S)NNc1cccc([N+](=O)[O-])c1
inactive: dose: 25.0 mg/kg/injection, schedule: Q01DX009 (ip), vehicle: other 96 % of control | dose: 50.0 mg/kg/injection, schedule: Q01DX009 (ip), vehicle: other 106 % of control | dose: 100.0 mg/kg/injection, schedule: Q01DX009 (ip), vehicle: other 91 % of control | dose: 200.0 mg/kg/injection, schedule: Q01DX009 (ip), vehicle: other 92 % of control

Cn1c(N)c(C(=O)CCc2ccccc2)c(=O)n(C)c1=O
inactive: [4] 97 % of control | [5] 97 % of control | [6] 96 % of control

COc1ccc(CCN2C(=O)C(=O)N(C)C2=O)cc1OC
inactive: [7] 90 % of control | [8] 96 % of control | [9] 102 % of control

CCOC(=O)C(C#N)C(=N)C1C(=O)OC2CCCCC21 (configuration not stated)
inactive: dose: 60.0 mg/kg/injection, schedule: Q01DX005 (ip), vehicle: saline with Tween-80 98 % of control | dose: 120.0 mg/kg/injection, schedule: Q01DX005 (ip), vehicle: saline with Tween-80 100 % of control | dose: 240.0 mg/kg/injection, schedule: Q01DX005 (ip), vehicle: saline with Tween-80 92 % of control

N#CC(C#N)/C=C/[Se]c1ccccc1
inactive: dose: 100.0 mg/kg/injection, schedule: Q04DX003 (ip), vehicle: saline 104 % of control | dose: 200.0 mg/kg/injection, schedule: Q04DX003 (ip), vehicle: saline 98 % of control | dose: 400.0 mg/kg/injection, schedule: Q04DX003 (ip), vehicle: saline 109 % of control

NNc1nncn1N
inactive: [1] 104 % of control and 91 % of control | [2] 104 % of control and 89 % of control | [3] 86 % of control and 95 % of control

CCOC(=O)C1=C(C)NC(CO)=C(C(=O)OCC)C1c1cccc([N+](=O)[O-])c1 (configuration not stated)
inactive: [4] 94 % of control | [5] 95 % of control | [6] 92 % of control

O=C(O)c1cc(-c2ccc(O)c(O)c2)nc2cc3ccccc3cc12
inactive: [7] 97 % of control | [8] 108 % of control | [9] 92 % of control

CC1CN(Cc2cc(C(C)(C)c3cc(Cl)c(O)c(CN4CC(C)OC(C)C4)c3)cc(Cl)c2O)CC(C)O1 (configuration not stated)
inactive: dose: 12.5 mg/kg/injection, schedule: Q01DX005 (ip), vehicle: saline with Tween-80 101 % of control | dose: 25.0 mg/kg/injection, schedule: Q01DX005 (ip), vehicle: saline with Tween-80 101 % of control | [4] 87 % of control and 91 % of control

CC(C)OC(=O)Oc1cccs1
inactive: dose: 12.5 mg/kg/injection, schedule: Q01DX009 (ip), vehicle: saline with Tween-80 100 % of control | dose: 25.0 mg/kg/injection, schedule: Q01DX009 (ip), vehicle: saline with Tween-80 109 % of control | [10] 100 % of control

CC(C)(C)N(O)c1cccc(P(c2ccccc2)c2ccccc2)c1
inactive: dose: 50.0 mg/kg/injection, schedule: Q04DX002 (ip), vehicle: saline with Tween-80 91 % of control | dose: 100.0 mg/kg/injection, schedule: Q04DX002 (ip), vehicle: saline with Tween-80 94 % of control | dose: 200.0 mg/kg/injection, schedule: Q04DX002 (ip), vehicle: saline with Tween-80 100 % of control

N#CCCN(CCCN1CCOCC1)CN1C(=O)c2ccccc2C1=O
inactive: [7] 98 % of control | [8] 91 % of control | dose: 400.0 mg/kg/injection, schedule: Q01DX009 (ip), vehicle: Klucel (hydroxypropylcellulose) (HPC) 99 % of control

CC(=O)OC1CCCCC1C (configuration not stated)
inactive: [10] 113 % of control | dose: 50.0 mg/kg/injection, schedule: Q04DX003 (ip), vehicle: saline with Tween-80 105 % of control | dose: 100.0 mg/kg/injection, schedule: Q01DX009 (ip), vehicle: saline with Tween-80 118 % of control | dose: 100.0 mg/kg/injection, schedule: Q04DX003 (ip), vehicle: saline with Tween-80 110 % of control | dose: 200.0 mg/kg/injection, schedule: Q01DX009 (ip), vehicle: saline with Tween-80 109 % of control | dose: 200.0 mg/kg/injection, schedule: Q04DX003 (ip), vehicle: saline with Tween-80 110 % of control
